From patent US20100197581A1, “NATIVE GP41 ASSAY” (priority 2007, published 2010)
Read-outs that look alike come from different tables or passages of the source.

Columns and labels:
[1] = molecular target: T1, gp41 (HR1 region) in native HIV-1 envelope spikes on HUTIIIB cells (Human immunodeficiency virus type 1 group M subtype B, UniProt P04578, V708A); type: binding, HIV-1 IIIB
[2] = molecular target: T1, gp41 (HR1 region) in native HIV-1 envelope spikes on HUTIIIB cells; settings: for activity in native gp41 assay (words, Table 4 results): reference compounds, flow cytometric- and HCS-based assay
Procedure: A serial dilution of test compounds, dissolved in DMSO, were diluted in culture medium (RPMI1640 with Ultraglutamin and Hepes w/o phenol red with 10% bovine calf serum (HyClone) and 20 μg/l gentamycin) with a final DMSO concentration of 1% and added to 384 well Cell Carrier plates (Evotec Technologies). Hut-IIIB cells (15000 cells/well) were added to these test plates and incubated for 30 min at room temperature. […] Finally, a solution of DRAQ 5 in PBS (final concentration of 5 μM) was added to the wells. After incubating the plates for 30′ at room temperature, the test plates were measured using the Opera™ confocal microscope high content screening platform (Evotec Technologies). After every addition, mixing of the well content was achieved by placing the 384w plates on a 384w shaker (MixMate, Eppendorf) for 5 seconds at 2000 rpm.
Image acquisition was performed using a 40× water immersion objective and simultaneous excitation of FITC and Draq5 fluorescence with a 488 and a 635 laser. […] Output parameters of the script included among others “mean (number of spots per cell)” and “mean (integrated spot signal)”. […] Furthermore, potential false positive results due to fluorescence or false negative results due to quenching can be assessed by comparing the inhibition curves generated by the two above mentioned output parameters.

[3] = small molecules, specificity experiments, flow cytometry, read-out: Native gp41 EC50
[4] = optimized protocol, […] C34-FITC, 75000 cells/well, compound added before sCD4, 3 independent experiments, read-out: EC50 flow cytometry

With `CC(C)(C)NC(=O)[C@@H]1C[C@@H]2CCCC[C@@H]2CN1C[C@@H](O)[C@H](Cc1ccccc1)NC(=O)[C@H](CC(N)=O)NC(=O)c1ccc2ccccc2n1` [SQV] the EC50 [1, 3] was over 200 µM.
`O=C(O)C1=CC(=C(c2ccc(O)c(C(=O)O)c2)c2ccc(O)c(C(=O)O)c2)C=CC1=O` [ATA] was tested, and the “inhibition of C34-FITC binding” value ([1]; small molecules, specificity experiments) was “about 40%” and the EC50 [1, 3] was over 200 µM.
In the case of `O=C1Nc2ccc(Cl)cc2[C@@](C#CC2CC2)(C(F)(F)F)O1` [EFV], the EC50 [1, 4] is reported as over 200 µM, the EC50 [1, 3] is reported as over 200 µM and the “cytotoxicity in HCS native gp41 assay” value ([2]; Hut-IIIB cells, 200 μM) is reported as “cytotoxicity”. For the same compound, the “activity in native gp41 assay (words, Table 4 results)” value [2] was “no activity”.
In the case of `O=C(NCc1ccc(F)cc1)c1nc(N2CCCCS2(=O)=O)c2cccnc2c1O` [L870,810], the EC50 [1, 3] is reported as over 200 µM.
For `Cc1cn([C@H]2C[C@H](N=[N+]=[N-])[C@@H](CO)O2)c(=O)[nH]c1=O` [AZT], the EC50 [1, 3] was over 200 µM.
`COc1ccnc2[nH]cc(C(=O)C(=O)N3CCN(C(=O)c4ccccc4)C[C@H]3C)c12` [BMS-806] was tested, and the EC50 [1, 4] was 0.013 µM, the EC50 [1, 3] was over 200 µM and the “difference between addition of compound before, after or together with sCD4 induction” value ([1]; three orders of addition, FIG. 1) was “large increase of sensitivity when the compound was added before or together with sCD4”. The EC50 ([2]; read-out: EC50 HCS, mean number of spots per cell, 0.5 nM C34-FITC, compound added before sCD4, 3 independent experiments) was 0.0043 µM and the “activity in native gp41 assay (words, Table 4 results)” value [2] was “active”.
